Measurements as given in ChEMBL document CHEMBL1145767, “Conformational restriction of methionyl tRNA synthetase inhibitors leading to analogues with potent inhibition and excellent gram-positive antibacterial activity” (Bioorg Med Chem Lett, 2003).
Values after ≈ are worked out from the molar mass of the structure shown.

Experiments:
Format in all cases: functional
Staphylococcus aureus [1] = assay: Inhibitory activity against Staphylococcus aureus MRS
Staphylococcus aureus [2] = assay: Antibacterial activity against Staphylococcus aureus Oxford
Enterococcus faecalis [3] = assay: Antibacterial activity against Enterococcus faecalis 1
[4] = system: Staphylococcus epidermidis; assay: Antibacterial activity against Staphylococcus epidermidis
Enterococcus faecium = assay: Antibacterial activity against Enterococcus faecium
Staphylococcus aureus [5] = assay: Antibacterial activity against Staphylococcus aureus
Enterococcus faecalis [6] = assay: Antibacterial activity against Enterococcus faecalis

| IC50 (Staphylococcus aureus [1]) [nM] | MIC (Staphylococcus aureus [2]) [µg/mL] | MIC (Enterococcus faecalis [3]) [µg/mL] | MIC90 [4] [µg/mL] | MIC90 (Enterococcus faecium) [µg/mL] | MIC90 (Staphylococcus aureus [5]) [µg/mL] | MIC90 (Enterococcus faecalis [6]) [µg/mL] | SMILES |
| --- | --- | --- | --- | --- | --- | --- | --- |
| 700 | > 64 | 32 (≈ 76.9 µM) |  |  |  |  | Oc1cc(NC[C@@H]2CCC[C@H]2NCc2ccc(Cl)c(Cl)c2)nc2ccccc12 |
| 150 | 64 (≈ 154 µM) | 32 (≈ 76.9 µM) |  |  |  |  | Oc1cc(N[C@@H]2CCC[C@H](NCc3ccc(Cl)c(Cl)c3)C2)nc2ccccc12 (racemic) |
| 12 | 2 (≈ 4.97 µM) | 0.25 (≈ 0.621 µM) |  |  |  |  | Oc1cc(NC[C@H]2CC[C@@H]2NCc2ccc(Cl)c(Cl)c2)nc2ccccc12 (racemic) |
| 18 | 16 (≈ 38.4 µM) | 8 (≈ 19.2 µM) |  |  |  |  | Oc1cc(NC[C@H]2CCC[C@H]2NCc2ccc(Cl)c(Cl)c2)nc2ccccc12 |
| 10 | > 64 | > 64 |  |  |  |  | Oc1cc(NCC2=CCCC2NCc2ccc(Cl)c(Cl)c2)nc2ccccc12 (racemic) |
| 7.6 | < 0.06 | < 0.06 | 0.125 (≈ 0.228 µM) | < 0.016 | 0.06 (≈ 0.109 µM) | 0.03 (≈ 0.0546 µM) | CCOc1c(Br)cc(Br)cc1CN[C@H]1CCC[C@@H]1CNc1cc(O)c2ccccc2n1 |
| 2300 | > 64 | > 64 |  |  |  |  | Oc1cc(N[C@H]2CC[C@H](NCc3ccc(Cl)c(Cl)c3)CC2)nc2ccccc12 |
| 78 | 64 (≈ 153 µM) | 4 (≈ 9.56 µM) |  |  |  |  | Oc1cc(NC[C@H]2OCC[C@@H]2NCc2ccc(Cl)c(Cl)c2)nc2ccccc12 |
| 56 | > 64 | > 64 |  |  |  |  | Oc1cc(NCc2ccccc2NCc2ccc(Cl)c(Cl)c2)nc2ccccc12 |
| 43 | > 64 | > 64 |  |  |  |  | Oc1cc(N[C@H]2CCC[C@H](NCc3ccc(Cl)c(Cl)c3)C2)nc2ccccc12 (racemic) |
| 100 | 8 (≈ 19.2 µM) | 1 (≈ 2.4 µM) |  |  |  |  | Oc1cc(NC[C@@H]2CCC[C@@H]2NCc2ccc(Cl)c(Cl)c2)nc2ccccc12 |
| 10 | < 0.06 | < 0.06 |  |  |  |  | Oc1cc(NC[C@H]2CCC[C@@H]2NCc2cc(Br)cc(Br)c2)nc2ccccc12 |
| 9 | 1 (≈ 2.4 µM) | 0.125 (≈ 0.3 µM) |  |  |  |  | Oc1cc(NC[C@H]2CCC[C@@H]2NCc2ccc(Cl)c(Cl)c2)nc2ccccc12 |
| 110 | > 64 | 16 (≈ 39.8 µM) |  |  |  |  | Oc1cc(NC[C@H]2CC[C@H]2NCc2ccc(Cl)c(Cl)c2)nc2ccccc12 (racemic) |
